Test results taken from article doi:10.1101/2023.12.04.569845, “Identification of 4-(6-((2-methoxyphenyl)amino)pyrazin-2-yl)benzoic acids as CSNK2A inhibitors with antiviral activity and improved selectivity over PIM3” (bioRxiv, 2023).
Where two headings read alike, the source gives them in different places. Blank lines part the entries; values can stand above or below the molecule they belong to.

What was measured:
Test in all cases: biochemical
Parameters in all cases: Thermal shift (DSF, SYPRO Orange) Tm shift of recombinant kinase domains at 10 uM compound
BMX = target: T1, BMX (Homo sapiens, UniProt P51813)
T1 sequence (P51813 1-675): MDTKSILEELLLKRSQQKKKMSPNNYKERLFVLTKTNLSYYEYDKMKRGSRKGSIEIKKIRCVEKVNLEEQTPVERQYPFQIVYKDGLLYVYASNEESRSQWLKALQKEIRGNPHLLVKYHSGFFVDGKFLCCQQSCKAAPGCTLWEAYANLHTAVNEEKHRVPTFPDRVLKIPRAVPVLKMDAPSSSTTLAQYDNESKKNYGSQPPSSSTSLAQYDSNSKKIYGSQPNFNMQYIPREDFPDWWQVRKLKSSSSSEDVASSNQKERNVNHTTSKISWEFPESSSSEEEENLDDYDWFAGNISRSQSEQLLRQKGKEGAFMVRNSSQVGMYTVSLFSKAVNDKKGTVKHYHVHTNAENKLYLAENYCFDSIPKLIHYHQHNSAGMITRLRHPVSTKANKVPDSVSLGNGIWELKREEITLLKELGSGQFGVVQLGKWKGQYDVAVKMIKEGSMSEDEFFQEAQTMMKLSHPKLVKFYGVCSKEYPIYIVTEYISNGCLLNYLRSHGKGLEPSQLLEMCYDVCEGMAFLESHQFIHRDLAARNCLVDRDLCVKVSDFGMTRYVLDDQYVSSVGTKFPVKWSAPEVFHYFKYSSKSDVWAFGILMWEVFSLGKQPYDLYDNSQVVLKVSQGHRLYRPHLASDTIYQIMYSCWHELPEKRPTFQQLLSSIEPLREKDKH

CAMK1G = CAMK1G (Homo sapiens, UniProt Q96NX5)
CAMK2D = CAMK2D (Homo sapiens, UniProt Q13557)
EPHA7 = EPHA7 (Homo sapiens, UniProt Q15375)
JNK1 = target: T2, JNK1 (Homo sapiens, UniProt P45983)
T2 construct: gene MAPK8

MARK3 = MARK3 (Homo sapiens, UniProt P27448)
MELK = MELK (Homo sapiens, UniProt Q14680)
MST1 = target: T3, MST1 (Homo sapiens, UniProt Q13043)
T3 construct: gene STK4
T3 sequence (Q13043 1-487): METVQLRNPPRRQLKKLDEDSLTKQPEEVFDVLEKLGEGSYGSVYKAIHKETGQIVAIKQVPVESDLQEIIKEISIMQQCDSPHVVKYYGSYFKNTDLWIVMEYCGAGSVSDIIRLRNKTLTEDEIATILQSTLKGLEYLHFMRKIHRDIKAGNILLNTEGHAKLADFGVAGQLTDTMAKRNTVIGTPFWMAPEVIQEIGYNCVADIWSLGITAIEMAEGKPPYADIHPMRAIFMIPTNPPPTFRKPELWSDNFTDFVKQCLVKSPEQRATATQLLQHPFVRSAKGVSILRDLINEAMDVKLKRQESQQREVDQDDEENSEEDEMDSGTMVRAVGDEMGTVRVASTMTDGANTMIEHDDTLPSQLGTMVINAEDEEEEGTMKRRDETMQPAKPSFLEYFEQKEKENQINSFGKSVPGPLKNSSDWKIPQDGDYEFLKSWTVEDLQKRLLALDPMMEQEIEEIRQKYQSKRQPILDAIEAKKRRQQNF

PAK1 = PAK1 (Homo sapiens, UniProt Q13153)
STLK3 = target: T4, STLK3 (Homo sapiens, UniProt Q9UEW8)
T4 construct: gene STK39

T2 sequence (P45983 whole entry): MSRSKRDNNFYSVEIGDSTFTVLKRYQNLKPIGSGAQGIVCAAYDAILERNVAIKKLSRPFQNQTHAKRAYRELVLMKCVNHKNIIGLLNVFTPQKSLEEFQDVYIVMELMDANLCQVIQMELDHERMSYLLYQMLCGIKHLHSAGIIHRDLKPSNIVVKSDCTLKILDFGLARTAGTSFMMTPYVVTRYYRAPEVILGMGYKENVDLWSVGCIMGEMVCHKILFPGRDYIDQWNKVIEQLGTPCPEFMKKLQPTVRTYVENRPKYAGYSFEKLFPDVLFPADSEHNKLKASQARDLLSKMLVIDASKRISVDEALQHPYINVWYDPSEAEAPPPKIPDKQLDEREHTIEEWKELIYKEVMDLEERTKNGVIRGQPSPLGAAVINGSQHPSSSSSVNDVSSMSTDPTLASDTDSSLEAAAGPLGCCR
Sequence of CAMK1G (Q96NX5 whole entry): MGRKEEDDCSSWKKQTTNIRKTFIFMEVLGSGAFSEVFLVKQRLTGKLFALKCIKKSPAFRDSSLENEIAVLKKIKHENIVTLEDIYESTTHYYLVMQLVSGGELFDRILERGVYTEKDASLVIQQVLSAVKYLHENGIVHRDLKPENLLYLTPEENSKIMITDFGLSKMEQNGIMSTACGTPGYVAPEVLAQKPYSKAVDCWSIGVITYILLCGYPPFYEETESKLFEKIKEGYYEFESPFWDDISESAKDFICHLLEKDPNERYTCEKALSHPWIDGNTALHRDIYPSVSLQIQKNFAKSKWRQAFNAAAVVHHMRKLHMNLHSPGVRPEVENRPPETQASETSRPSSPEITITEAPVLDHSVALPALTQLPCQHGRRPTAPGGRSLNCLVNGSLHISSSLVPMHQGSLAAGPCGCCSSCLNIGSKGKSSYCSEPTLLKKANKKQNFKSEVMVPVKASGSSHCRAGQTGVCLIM
Sequence of CAMK2D (Q13557 whole entry): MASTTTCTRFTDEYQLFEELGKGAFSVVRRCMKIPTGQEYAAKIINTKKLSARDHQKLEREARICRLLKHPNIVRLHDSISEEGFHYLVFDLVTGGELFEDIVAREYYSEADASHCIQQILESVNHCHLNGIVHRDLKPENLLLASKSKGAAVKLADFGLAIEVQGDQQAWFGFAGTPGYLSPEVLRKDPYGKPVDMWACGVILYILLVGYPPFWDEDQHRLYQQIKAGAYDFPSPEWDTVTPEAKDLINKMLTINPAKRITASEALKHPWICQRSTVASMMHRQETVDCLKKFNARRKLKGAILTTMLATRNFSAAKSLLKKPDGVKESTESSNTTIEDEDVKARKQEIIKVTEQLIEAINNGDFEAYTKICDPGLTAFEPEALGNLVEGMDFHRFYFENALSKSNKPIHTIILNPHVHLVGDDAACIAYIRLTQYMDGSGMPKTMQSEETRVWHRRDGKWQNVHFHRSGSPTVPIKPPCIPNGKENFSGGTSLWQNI
Sequence of MELK (Q14680 whole entry): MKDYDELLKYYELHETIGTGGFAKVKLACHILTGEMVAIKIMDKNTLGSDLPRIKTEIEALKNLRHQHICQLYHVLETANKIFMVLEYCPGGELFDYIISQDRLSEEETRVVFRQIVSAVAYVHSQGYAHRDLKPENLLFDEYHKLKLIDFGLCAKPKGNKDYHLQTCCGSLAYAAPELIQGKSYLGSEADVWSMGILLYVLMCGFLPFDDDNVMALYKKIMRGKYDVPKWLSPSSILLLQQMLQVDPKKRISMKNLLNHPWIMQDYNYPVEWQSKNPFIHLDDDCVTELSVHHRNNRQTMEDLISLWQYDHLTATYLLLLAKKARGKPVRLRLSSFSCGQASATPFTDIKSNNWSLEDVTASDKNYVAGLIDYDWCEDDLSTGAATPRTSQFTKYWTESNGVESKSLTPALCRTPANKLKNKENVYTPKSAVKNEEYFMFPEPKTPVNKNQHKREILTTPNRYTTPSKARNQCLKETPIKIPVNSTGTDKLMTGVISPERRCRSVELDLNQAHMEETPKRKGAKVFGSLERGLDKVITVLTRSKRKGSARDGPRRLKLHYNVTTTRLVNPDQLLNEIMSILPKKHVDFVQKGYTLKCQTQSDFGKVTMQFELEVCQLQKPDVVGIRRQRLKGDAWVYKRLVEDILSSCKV
Sequence of MARK3 (P27448 whole entry): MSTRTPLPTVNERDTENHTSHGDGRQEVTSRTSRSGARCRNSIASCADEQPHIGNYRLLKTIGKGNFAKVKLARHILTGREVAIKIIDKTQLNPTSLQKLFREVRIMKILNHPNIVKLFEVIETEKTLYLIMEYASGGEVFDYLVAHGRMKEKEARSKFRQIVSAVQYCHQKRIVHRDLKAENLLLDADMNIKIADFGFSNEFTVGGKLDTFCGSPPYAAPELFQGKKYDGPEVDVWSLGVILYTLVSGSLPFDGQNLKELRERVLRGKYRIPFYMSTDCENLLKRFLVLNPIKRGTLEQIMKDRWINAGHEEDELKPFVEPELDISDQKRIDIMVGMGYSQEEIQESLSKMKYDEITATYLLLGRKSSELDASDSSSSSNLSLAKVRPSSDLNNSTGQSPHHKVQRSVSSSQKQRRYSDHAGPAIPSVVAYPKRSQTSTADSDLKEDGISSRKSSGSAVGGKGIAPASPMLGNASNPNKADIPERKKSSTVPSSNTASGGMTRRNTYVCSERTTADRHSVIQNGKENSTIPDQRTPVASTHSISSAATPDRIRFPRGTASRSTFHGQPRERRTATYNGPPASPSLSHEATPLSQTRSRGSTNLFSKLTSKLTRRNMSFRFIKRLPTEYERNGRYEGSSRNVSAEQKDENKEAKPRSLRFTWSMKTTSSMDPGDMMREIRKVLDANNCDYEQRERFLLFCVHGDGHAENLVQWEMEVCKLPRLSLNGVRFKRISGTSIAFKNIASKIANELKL
Sequence of PAK1 (Q13153 whole entry): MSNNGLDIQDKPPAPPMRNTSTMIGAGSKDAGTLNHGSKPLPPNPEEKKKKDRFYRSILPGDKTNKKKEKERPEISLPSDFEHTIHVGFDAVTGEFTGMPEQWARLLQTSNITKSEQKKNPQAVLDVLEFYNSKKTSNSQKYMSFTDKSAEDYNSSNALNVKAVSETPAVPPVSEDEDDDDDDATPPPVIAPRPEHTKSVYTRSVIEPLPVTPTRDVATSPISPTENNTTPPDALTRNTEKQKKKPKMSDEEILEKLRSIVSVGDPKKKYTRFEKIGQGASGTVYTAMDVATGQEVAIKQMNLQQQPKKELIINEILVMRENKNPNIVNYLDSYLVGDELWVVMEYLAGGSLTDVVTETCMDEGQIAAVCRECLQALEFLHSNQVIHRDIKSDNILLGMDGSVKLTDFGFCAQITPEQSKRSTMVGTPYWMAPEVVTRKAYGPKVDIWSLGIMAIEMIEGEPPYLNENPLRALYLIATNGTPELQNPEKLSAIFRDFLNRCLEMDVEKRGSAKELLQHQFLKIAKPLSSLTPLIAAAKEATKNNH
Sequence of EPHA7 (Q15375 whole entry): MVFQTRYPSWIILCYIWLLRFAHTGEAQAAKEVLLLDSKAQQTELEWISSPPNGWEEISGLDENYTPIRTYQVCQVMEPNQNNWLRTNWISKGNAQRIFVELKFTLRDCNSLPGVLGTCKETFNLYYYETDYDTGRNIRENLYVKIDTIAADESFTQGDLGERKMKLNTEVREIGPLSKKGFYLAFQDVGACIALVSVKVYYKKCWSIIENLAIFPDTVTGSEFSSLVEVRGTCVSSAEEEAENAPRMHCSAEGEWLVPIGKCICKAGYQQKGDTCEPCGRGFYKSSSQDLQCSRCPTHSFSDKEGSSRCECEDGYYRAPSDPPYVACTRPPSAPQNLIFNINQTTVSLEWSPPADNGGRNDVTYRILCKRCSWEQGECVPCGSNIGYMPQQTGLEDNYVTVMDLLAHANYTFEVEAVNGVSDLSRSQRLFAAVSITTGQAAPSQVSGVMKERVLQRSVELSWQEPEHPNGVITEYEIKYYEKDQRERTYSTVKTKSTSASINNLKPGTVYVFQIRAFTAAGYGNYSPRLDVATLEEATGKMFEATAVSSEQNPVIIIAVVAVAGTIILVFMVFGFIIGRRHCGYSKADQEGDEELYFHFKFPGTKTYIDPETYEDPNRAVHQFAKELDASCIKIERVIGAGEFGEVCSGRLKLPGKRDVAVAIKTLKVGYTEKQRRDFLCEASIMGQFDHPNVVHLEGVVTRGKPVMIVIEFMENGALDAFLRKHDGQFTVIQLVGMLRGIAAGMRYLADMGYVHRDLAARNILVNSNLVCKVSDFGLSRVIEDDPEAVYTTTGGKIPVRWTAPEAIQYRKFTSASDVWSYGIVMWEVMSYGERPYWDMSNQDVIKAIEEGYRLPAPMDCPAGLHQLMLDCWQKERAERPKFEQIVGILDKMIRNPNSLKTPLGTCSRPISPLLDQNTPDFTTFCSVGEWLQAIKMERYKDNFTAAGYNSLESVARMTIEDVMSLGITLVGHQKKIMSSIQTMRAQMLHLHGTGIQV

ΔTm at 10 µM (BMX; read-out: 6c): 2 °C | ΔTm at 10 µM (CAMK1G; read-out: 6c): 0 °C | ΔTm at 10 µM (CAMK2D; read-out: 6c): 3 °C | ΔTm at 10 µM (EPHA7; read-out: 6c): 1 °C | ΔTm at 10 µM (JNK1; read-out: 6c): 3 °C | ΔTm at 10 µM (MARK3; read-out: 6c): -1 °C | ΔTm at 10 µM (MELK; read-out: 6c): 4 °C | ΔTm at 10 µM (MST1; read-out: 6c): 1 °C | ΔTm at 10 µM (PAK1; read-out: 6c): 0 °C | ΔTm at 10 µM (STLK3; read-out: 6c): 0 °C
Compound: CC(C)Oc1ccc2ccn(-c3cncc(-c4ccc(C(=O)O)cc4)n3)c2c1 [6c]

ΔTm at 10 µM (BMX; read-out: 7c): 1 °C | ΔTm at 10 µM (CAMK1G; read-out: 7c): -1 °C | ΔTm at 10 µM (CAMK2D; read-out: 7c): 0 °C | ΔTm at 10 µM (EPHA7; read-out: 7c): 0 °C | ΔTm at 10 µM (JNK1; read-out: 7c): 1 °C | ΔTm at 10 µM (MARK3; read-out: 7c): -1 °C | ΔTm at 10 µM (MELK; read-out: 7c): 4 °C | ΔTm at 10 µM (MST1; read-out: 7c): 1 °C | ΔTm at 10 µM (PAK1; read-out: 7c): -1 °C | ΔTm at 10 µM (STLK3; read-out: 7c): 0 °C
Compound: COc1ccc(OC(C)C)cc1Nc1cncc(-c2ccc(C(=O)O)cc2)n1 [7c]

ΔTm at 10 µM (BMX; read-out: 2): 3 °C | ΔTm at 10 µM (CAMK1G; read-out: 2): 2 °C | ΔTm at 10 µM (CAMK2D; read-out: 2): 3 °C | ΔTm at 10 µM (EPHA7; read-out: 2): 2 °C | ΔTm at 10 µM (JNK1; read-out: 2): 6 °C | ΔTm at 10 µM (MARK3; read-out: 2): 0 °C | ΔTm at 10 µM (MELK; read-out: 2): 6 °C | ΔTm at 10 µM (MST1; read-out: 2): 3 °C | ΔTm at 10 µM (PAK1; read-out: 2): 1 °C | ΔTm at 10 µM (STLK3; read-out: 2): 1 °C
Compound: CC(C)Nc1ccc2cnn(-c3cncc(-c4ccc(C(=O)O)cc4)n3)c2c1 [compound 2, 2]
